The subject of the assay is S. aureus strain ATCC 29213. Nature of the assay: Antimicrobial susceptibility test by disc diffusion method (zone of inhibition). Format: cell-based. To be noted: microbial concentration 1 × 10^8 CFU/ml, 35-37° C., 18-20 h, NZI = No zone of inhibition; for Testing for zone of inhibition; Method of Inoculation: Swabbing: Mueller-Hinton agar plate inoculated by cotton swab; for Testing for zone of inhibition; Method of Inoculation: Apparatus, Double actuation / Testing for zone of inhibition; Method of Inoculation: Apparatus, Single actuation: Mueller-Hinton agar plate spray-inoculated with apparatus. The procedure:
In an experiment, Mueller-Hinton Agar plates were prepared. Forty grams of Mueller-Hinton Agar (MHA) was suspended in 1 liter distilled water and then boiled to dissolve the powder completely. The medium was sterilized by autoclaving at 121° C. for 15 min. After autoclaving, the medium was cooled to 45° C. and poured 25 mL molten agar into sterile 90 mm diameter Petri dishes (petri plates) to give a depth of about 4 mm. The surface of the agar was dried to remove excess moisture before use.
The suspension density was measured by using an UV spectrophotometer. The density of the suspension was adjusted to McFarland 0.5 by addition of saline or more organisms. The number of colony forming units (CFU/ml) in the culture samples plays an important role in the incubation of the agar plates. For colony isolation, diluted microbial suspension (about 1-2×10^3 CFU/ml) can be sprayed over agar plate.
For comparison, some agar plates were inoculated by cotton swab. A sterile cotton swab was dipped into the bacterial suspension (1-2×10^8 CFU/ml) and the excess fluid removed by turning the swab against the inside of the tube to avoid over-inoculation of plates. The inoculum was spread evenly over the entire surface of the agar plate by swabbing in three directions.
Other agar plates were inoculated by using the present apparatus. The agar plates were inoculated with inoculum of bacterial suspension (1-2×10^8 CFU/ml). The bacterial suspension was filled in the reservoir of the present apparatus and then sprayed uniformly using the atomizer over an agar plate held inside the spray chamber using the atomizer.
Antimicrobial susceptibility tests of the S. aureus strain ATCC 29213 was determined by the disc diffusion method according to the recommendations and guidelines of Clinical Laboratory Standard Institutes (CLSI M100-S24; 2014). A panel of commercial antibiotic discs comprising Gentamicin (GM), Amikacin (AN), Chloramphenicol (C), Imipenem (IPM), Tetracycline (TE), Cefepime (FEP), Sulfamethoxazole/trimethoprim (SXT), Aztreonam (ATM) was used for susceptibility testing. All commercial antibiotic discs were purchased from BBL (Becton Dickinson, USA).
The predetermined panel of antimicrobial disks was applied firmly on the surface of inoculated Mueller-Hinton agar media by using a disc dispenser device.
Within 15 min of application of antimicrobial disks, the plates were inverted and incubated aerobically at 35-37° C. for 18-20 h.
After incubation, inhibition zones were read at the point where no obvious growth is detected by the unaided eye when the plate was held about 30 cm from the eye. The inhibition zone diameters were measured to the nearest millimeter with a ruler. The plates were read from the back of the plate with reflected light against a dark background. Zone diameters of antibiotics in swab inoculated plate were compared with zone diameter in apparatus-inoculated plates.

For `NCC[C@H](O)C(=O)N[C@@H]1C[C@H](N)[C@@H](O[C@H]2O[C@H](CN)[C@@H](O)[C@H](O)[C@H]2O)[C@H](O)[C@H]1O[C@H]1O[C@H](CO)[C@@H](O)[C@H](N)[C@H]1O` [AN, Amikacin], the “Testing for zone of inhibition; Method of Inoculation: Swabbing” value (“Testing for zone of inhibition … Swabbing” below) is on record as 22 mm; the “Testing for zone of inhibition; Method of Inoculation: Apparatus, Double actuation” value was 23 mm; the “Testing for zone of inhibition; Method of Inoculation: Apparatus, Single actuation” value was 26 mm.
For `C[C@H]1[C@H](NC(=O)/C(=N\OC(C)(C)C(=O)O)c2csc(N)n2)C(=O)N1S(=O)(=O)O` [ATM, Aztreonam] the same measures were “NZI”, “NZI” and “NZI”.
For `O=C(N[C@H](CO)[C@H](O)c1ccc([N+](=O)[O-])cc1)C(Cl)Cl` [C, Chloramphenicol] the same measures were 21 mm, 22 mm and 22 mm.
With `CO/N=C(\C(=O)N[C@@H]1C(=O)N2C(C(=O)[O-])=C(C[N+]3(C)CCCC3)CS[C@H]12)c1csc(N)n1` [FEP, Cefepime], the “Testing for zone of inhibition … Swabbing” value is listed as “NZI”; the “Testing for zone of inhibition; Method of Inoculation: Apparatus, Double actuation” value was “NZI”; the “Testing for zone of inhibition; Method of Inoculation: Apparatus, Single actuation” value is recorded as “NZI”.
Regarding `C[C@@H](O)[C@H]1C(=O)N2C(C(=O)O)=C(SCCN=CN)C[C@H]12` [IPM, Imipenem], the “Testing for zone of inhibition … Swabbing” value turned out to be 38 mm; the “Testing for zone of inhibition; Method of Inoculation: Apparatus, Double actuation” value stood at 38 mm; the “Testing for zone of inhibition; Method of Inoculation: Apparatus, Single actuation” value is listed as 38 mm.
In the case of `CN(C)[C@@H]1C(O)=C(C(N)=O)C(=O)[C@@]2(O)C(O)=C3C(=O)c4c(O)cccc4[C@@](C)(O)[C@H]3C[C@@H]12` [TE, Tetracycline], the “Testing for zone of inhibition … Swabbing” value is reported as 22 mm; the “Testing for zone of inhibition; Method of Inoculation: Apparatus, Double actuation” value came out at 24 mm; the “Testing for zone of inhibition; Method of Inoculation: Apparatus, Single actuation” value was 25 mm.
Consider Gentamicin [GM], for which the “Testing for zone of inhibition … Swabbing” value was determined as 21 mm; the “Testing for zone of inhibition; Method of Inoculation: Apparatus, Double actuation” value stood at 22 mm; the “Testing for zone of inhibition; Method of Inoculation: Apparatus, Single actuation” value was 22 mm.

The record behind these values is US10379016B1, “Apparatus for inoculating agar plate” (priority 2018, dated 2019).
